Measured values: US20230365546A1, “5-SUBSTITUTED INDOLE 3-AMIDE DERIVATIVES, PREPARATION METHOD AND USE THEREOF” (ORIGIANT PHARMACEUTICAL CO., LTD, priority 2020, published 2023)
pEC50, pIC50: −log10 of the molar value. Where two headings read alike, the source gives them in different places.

What was measured:
RIPK1 = RIPK1 (Homo sapiens (Human), UniProt Q13546); test: In vitro kinase assay (Eurofins Kinase Profiler), IC50; assay type: biochemical; details: 0.001-10 μM, read-out: RIPK 1 (IC50)
HT-29 cells = test: Protection against programmed necrosis of HT-29 cells (TNF α/Smac mimetic/Z-VAD-FMK, CCK8); assay type: cell-based; details: Homo sapiens
[1] = tested on: RIPK1 autophosphorylation, phosphorylation of RIPK3 and MLKL; test: Regulation of RIPK1 signaling pathway (Western blot); assay type: cell-based; details: TNF α/Smac mimetic/Z-VAD-FMK induced, FIG. 4
From the text: TNF α was purchased from PeproTech Inc., Smac mimetic and Z-VAD-FMK was purchased from Selleck Inc., RIPA lysis buffer was purchased from Beyotime Institute of Biotechnology, cocktail was purchased from MedChemExpress (MCE) Limited, PMSF protease inhibitors, sodium dodecylsulfonate SDS, and glycine were purchased from Sigma Inc., acrylamide, tris(hydroxymethyl)aminomethane Tris, ammonium persulfate APS and N,N,N′,N′-tetramethyl ethylenediamine TEMED were purchased from Wuhan Servicebio Technology Co., Ltd.
Extraction of total cellular protein: after the cells were treated by adding the corresponding concentration of Compounds 94 and 46 or blank vehicle to the cell supernatant and induced with TNF α/Smac mimetic/Z-VAD-FMK combination for a certain period of time, the supernatant was discarded, followed by washing three times with pre-cooled PBS or normal saline, then an appropriate volume of RIPA lysis buffer (containing 1% cocktail and 1% PMSF protease inhibitor) was added, the mixture was immediately placed on ice horizontally for lysis of 15 min, then the cell lysis buffer was scraped with a scraper and transferred to a 1.5 ml EP tube, and the cells were disrupted with a sonicator. The tubes were then centrifuged in a low temperature high speed centrifuge (12000 rpm, 15 min) to remove cell debris. […]

TNF α-induced SIRS = test: TNF α-induced mouse SIRS model; assay type: in vivo; details: 40 mg/kg oral once before TNF α 500 μg/kg i.v.
Procedure: TNF α formulated in sterile normal saline was administered at a dose of 500 μg/kg by tail vein injection for modeling. The body temperature of the mice was measured by an infrared electric thermometer. The orally-administrated vehicle was 25% castor oil in ethanol and 75% normal saline. Compounds 94 and 46 and RIPK1 positive compound GSK2982772 were administered orally before modeling with a dose of 40 mg/kg. Body temperature and the survival of mice were recorded every hour and recorded for 24 h and 48 h after 11 h.
This experiment established a TNF α-induced SIRS mouse model to evaluate the in vivo activity of compounds of the present invention. TNF α formulated in sterile normal saline was administered to mice at a dose of 500 μg/kg by tail vein injection for modeling. Since the measurement of rectal temperature would cause mechanical injury to mice and may interfere with the experimental results, an infrared electric thermometer was used to measure the body temperature of mice and the survival condition was observed. Compounds 94 and 46 were administered at a dose of 40 mg/kg once prior to modeling. The Vehicle group was given the corresponding vehicle control.

[2] = In vivo pharmacokinetic study in rats; details: rat, plasma, oral, 10 mg/kg
Procedure: Blood was collected from rats at different times after administration at the following time points: 0.083 h, 0.25 h, 0.5 h, 1 h, 2 h, 4 h, 8 h, and 24 h after intravenous administration; 0.25 h, 0.5 h, 1 h, 2 h, 4 h, 6 h, 8 h, and 24 h after oral administration. About 0.20 mL of blood was collected via jugular vein or other suitable means for each sample at the corresponding time, with heparin sodium for anticoagulation; the blood sample was placed on ice after collection and centrifuged within 1 h to separate the plasma (centrifugation conditions: centrifugal force 6800 g, 6 min, 2-8° C.). The collected plasma samples were stored in a refrigerator at −80° C. before analysis, and the remaining plasma samples continued to be temporarily stored in the refrigerator at −80° C. for one month after analysis.
Pharmacokinetic parameters such as AUC (0-t), T1/2, Cmax, Tmax, and MRT were calculated using WinNonlin based on plasma concentration data at different time points. The plasma drug concentration-time curve was plotted with BLQ recorded as 0. For the calculation of pharmacokinetic parameters, the concentration before administration was calculated as 0; BLQ before Cmax (including “No peak”) was calculated as 0; no BLQ (including “No peak”) appeared after Cmax participated in the calculation. The experiment was completed by Shanghai Medicilon Inc.

DSS-induced colitis = test: DSS-induced mouse IBD model; details: 40 mg/kg oral from day 7 after 2.5% DSS
Procedure: Female C57BL/6 mice weighing 17-20 g were used. […] Fresh DSS solution was changed on Days 2, 4, and 6, respectively. […] The Control group was given normal drinking water daily and corresponding vehicles orally starting on day 7. Body weights and survival rates of mice were recorded daily. Survival curves were fitted using Graphpad Prism 5.0 software. Mice (2/group) were sacrificed on day 12 and observed for changes in colon length.

[3] = TNF α/Smac mimetic/Z-VAD-FMK induced 24 h, CCK8, read-out: HT-29 (EC50)

Sequence of RIPK1 (Q13546 whole entry): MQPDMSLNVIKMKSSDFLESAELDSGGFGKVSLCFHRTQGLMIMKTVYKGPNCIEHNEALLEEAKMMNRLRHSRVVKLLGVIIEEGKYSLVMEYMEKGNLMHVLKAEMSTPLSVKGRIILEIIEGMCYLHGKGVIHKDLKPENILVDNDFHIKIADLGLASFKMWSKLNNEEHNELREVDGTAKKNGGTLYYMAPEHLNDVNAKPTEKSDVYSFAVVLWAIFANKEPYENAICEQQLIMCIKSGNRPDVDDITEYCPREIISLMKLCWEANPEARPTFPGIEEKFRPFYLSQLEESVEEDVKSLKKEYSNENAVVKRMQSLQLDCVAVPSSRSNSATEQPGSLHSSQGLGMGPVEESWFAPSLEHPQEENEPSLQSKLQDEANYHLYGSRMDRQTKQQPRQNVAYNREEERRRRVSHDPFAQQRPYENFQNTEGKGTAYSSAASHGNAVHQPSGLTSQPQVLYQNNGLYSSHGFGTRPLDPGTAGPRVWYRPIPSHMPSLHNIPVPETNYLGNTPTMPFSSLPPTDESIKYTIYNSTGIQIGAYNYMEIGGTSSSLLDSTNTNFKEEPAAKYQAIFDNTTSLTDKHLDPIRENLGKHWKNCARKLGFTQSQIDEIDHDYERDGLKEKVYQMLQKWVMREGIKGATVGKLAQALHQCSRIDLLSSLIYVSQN

C[C@H](NC(=O)c1cn(C)c2ccc(-c3ccc4nc(NC(=O)C5CC5)sc4c3)cc12)c1cccc(F)c1 [Compound 46]
pIC50 (RIPK1): 7.00 to 8.00
pEC50 (HT-29 cells; [3]): > 9.00
pEC50 (HT-29 cells; TSZ-induced, FIG. 3, read-out: EC50 value, programmed necrosis model of HT-29): 10.15
Effect on necrotic signaling pathway (RIPK1 autophosphorylation, RIPK3 and MLKL phosphorylation) [1]: affected the phosphorylation of RIPK3 and MLKL downstream of RIPK1 by inhibiting its autophosphorylation
Overall mortality (TNF α-induced SIRS; compared with Vehicle group): significantly reduced
Body temperature of mice (TNF α-induced SIRS; within 11 h): relatively normal

Cn1cc(C(=O)N2CCCC2c2cccc(F)c2)c2cc(-c3ccn4nc(NC(=O)C5CC5)nc4c3)ccc21 (centres unmarked) [Compound 168]
pIC50 (RIPK1): 7.00 to 8.00
pEC50 (HT-29 cells; [3]): > 9.00
AUC(0-t) [2]: 15300 ng·h/mL
Cmax [2]: 6360 ng/mL
Tmax [2]: 0.33 h
bioavailability [2]: 60.9%
half-life [2]: 3.1 h

Cn1cc(C(=O)N2CCC[C@H]2c2ccc(F)cc2)c2cc(-c3ccn4nc(NC(=O)C5CC5)nc4c3)ccc21 [Compound 174]
pIC50 (RIPK1): 8.00 to 9.00
pEC50 (HT-29 cells; [3]): > 9.00
AUC(0-t) [2]: 11500 ng·h/mL
Cmax [2]: 3840 ng/mL
Tmax [2]: 0.42 h
bioavailability [2]: 35%
half-life [2]: 1.99 h

Cn1cc(C(=O)N2CCC[C@H]2c2ccc(F)c(F)c2)c2cc(-c3ccn4nc(NC(=O)C5CC5)nc4c3)ccc21 [Compound 191]
pIC50 (RIPK1): > 9.00
pEC50 (HT-29 cells; [3]): > 9.00
AUC(0-t) [2]: 4560 ng·h/mL
Cmax [2]: 2130 ng/mL
Tmax [2]: 0.33 h
bioavailability [2]: 20.4%
half-life [2]: 4.67 h

Cn1cc(C(=O)N2CCC[C@H]2c2cccc(Cl)c2)c2cc(-c3ccn4nc(NC(=O)C5CC5)nc4c3)ccc21 [Compound 193]
pIC50 (RIPK1): 7.00 to 8.00
pEC50 (HT-29 cells; [3]): 7.00 to 8.00
AUC(0-t) [2]: 14800 ng·h/mL
Cmax [2]: 2880 ng/mL
Tmax [2]: 2.25 h
bioavailability [2]: 31.7%
half-life [2]: 2.74 h

CC[C@H](NC(=O)c1cn(CC)c2ccc(-c3ccn4nc(NC(=O)C5CC5)nc4c3)cc12)c1ccc(F)cc1 [Compound 199]
pIC50 (RIPK1): 8.00 to 9.00
pEC50 (HT-29 cells; [3]): > 9.00

CCn1cc(C(=O)N[C@H](c2ccc(F)cc2)C2CC2)c2cc(-c3ccn4nc(NC(=O)C5CC5)nc4c3)ccc21 [Compound 200]
pIC50 (RIPK1): 7.00 to 8.00
pEC50 (HT-29 cells; [3]): > 9.00

CCn1cc(C(=O)N2CCC[C@H]2c2ccc(F)cc2)c2cc(-c3ccn4nc(NC(=O)CN(C)C)nc4c3)ccc21 [Compound 201]
pIC50 (RIPK1): 7.00 to 8.00
pEC50 (HT-29 cells; [3]): 8.00 to 9.00

Cn1cc(C(=O)N2C(CO)CC[C@H]2c2ccc(F)cc2)c2cc(-c3ccn4nc(NC(=O)C5CC5)nc4c3)ccc21 (some centres unmarked) [Compound 202]
pIC50 (RIPK1): ≤ 6.00
pEC50 (HT-29 cells; [3]): 7.00 to 8.00

Cn1cc(C(=O)N[C@@H](CO)c2ccc(F)cc2)c2cc(-c3ccn4nc(NC(=O)C5CC5)nc4c3)ccc21 [Compound 203]
pIC50 (RIPK1): 7.00 to 8.00
pEC50 (HT-29 cells; [3]): > 9.00

CCn1cc(C(=O)N2CCC[C@H]2c2ccc(F)cc2)c2cc(-c3ccn4nc(NC(=O)[C@@H](C)O)nc4c3)ccc21 [Compound 204]
pIC50 (RIPK1): 7.00 to 8.00
pEC50 (HT-29 cells; [3]): > 9.00

CCn1cc(C(=O)N2CCC[C@H]2c2ccc(F)cc2)c2cc(-c3ccn4nc(NC(=O)[C@H](C)O)nc4c3)ccc21 [Compound 205]
pIC50 (RIPK1): 7.00 to 8.00
pEC50 (HT-29 cells; [3]): > 9.00

[2H]C([2H])([2H])n1cc(C(=O)N[C@H](c2ccc(F)cc2)C2CC2)c2cc(-c3ccn4nc(NC(=O)C5CC5)nc4c3)ccc21 [Compound 206]
pIC50 (RIPK1): 8.00 to 9.00
pEC50 (HT-29 cells; [3]): > 9.00

[2H]C([2H])([2H])n1cc(C(=O)N[C@H](c2ccc(F)cc2)C2CC2)c2cc(-c3ccn4nc(NC(=O)CN(C)C)nc4c3)ccc21 [Compound 207]
pIC50 (RIPK1): 6.00 to 7.00
pEC50 (HT-29 cells; [3]): 8.00 to 9.00

[2H]C([2H])([2H])n1cc(C(=O)N[C@@H](CC)c2ccc(F)cc2)c2cc(-c3ccn4nc(NC(=O)C5CC5)nc4c3)ccc21 [Compound 208]
pIC50 (RIPK1): 7.00 to 8.00
pEC50 (HT-29 cells; [3]): > 9.00

CCN(CC)CC(=O)Nc1nc2cc(-c3ccc4c(c3)c(C(=O)N3CCC[C@H]3c3ccc(F)cc3)cn4C)ccn2n1 [Compound 209]
pIC50 (RIPK1): 8.00 to 9.00
pEC50 (HT-29 cells; [3]): > 9.00

CCn1cc(C(=O)N[C@H](c2ccc(F)cc2)C2CC2)c2cc(-c3ccn4nc(NC(=O)CN(C)C)nc4c3)ccc21 [Compound 210]
pIC50 (RIPK1): 7.00 to 8.00
pEC50 (HT-29 cells; [3]): > 9.00

CC[C@H](NC(=O)c1cn(CC)c2ccc(-c3ccn4nc(NC(=O)CN(C)C)nc4c3)cc12)c1ccc(F)cc1 [Compound 211]
pIC50 (RIPK1): 8.00 to 9.00
pEC50 (HT-29 cells; [3]): > 9.00

CCn1cc(C(=O)N[C@@H](CF)c2ccc(F)cc2)c2cc(-c3ccn4nc(NC(=O)C5CC5)nc4c3)ccc21 [Compound 212]
pIC50 (RIPK1): 8.00 to 9.00
pEC50 (HT-29 cells; [3]): > 9.00

C[C@H]1CC[C@@H](c2ccc(F)cc2)N1C(=O)c1cn(C)c2ccc(-c3ccn4nc(NC(=O)C5CC5)nc4c3)cc12 [Compound 213]
pIC50 (RIPK1): 8.00 to 9.00
pEC50 (HT-29 cells; [3]): > 9.00

CCn1cc(C(=O)N[C@H](c2ccc(F)cc2)C2CC2)c2cc(-c3ccn4nc(NC5CC5)nc4c3)ccc21 [Compound 214]
pIC50 (RIPK1): ≤ 6.00
pEC50 (HT-29 cells; [3]): ≤ 6.00

GSK3145095 [reference compound]
Death of mice (DSS-induced colitis): occurrence of murine death
Body weight of mice (DSS-induced colitis; FIG. 6): continuous declination in body weight
